Tests used:
two row barley [1] = experiment: Malting trials: overall malt quality against defined specifications; settings: Example 2; inferred from content in compositions A-E and Table 6
Description: Cereal grain malting trials were performed according to the methods described herein to compare Control malts # 1, 2 and 3 with Test malts # 1, 2, 3, 4 and 5, where steviol glycosides were added at the following rates: • Test 1: 0.00019 kg per 1 metric ton of unmalted barley; • Test 2: 0.00013 kg per 1 metric ton of unmalted barley; • Test 3: 0.00024 kg per 1 metric ton of unmalted barley; • Test 4: 0.00070 kg per 1 metric ton of unmalted barley; • Test 5: 0.00043 kg per 1 metric ton of unmalted barley; The steviol glycosides were added at the beginning of the germination process, prior to kilning. Table 5 illustrates the weight percent ranges of each steviol glycoside in a mixture of steviol glycosides.
Control malts # 1, 2 and 3 and Test malts # 1, 2, 3, 4 and 5 were prepared as follows. The general process is illustrated in FIG. 10.
Control Malt # 1 was produced according to the steeping process described in FIG. 10, which was performed in flat bottomed steep vessel, adding 400 kg of 100% two row barley having a 10% moisture content to water. The steeping process included three steeping steps, including a steeping step which was conducted for 1:15 hours and followed by a drying step which was aeration at 19-21° C. during 6 hours. The steeping step was repeated two times. When the steeping degree of the cereal grains measured ≥42%, the water was drained off in preparation for germination. Steviol glycosides and/or gibberellic acid were not added during Control Malt # 1 production.
The germinating step of Control Malt # 1 is described in FIG. 10, which occurred in a typical rectangular germination box (e.g., unit type Saladin) for 5.5 days. The ventilation air temperature during the germinating step was 15-18° C. from the first until the third germination day, followed by ventilation air temperature of 11-15° C. from the third until the last germination day, and the moisture content was 43-47%. The malt turning procedures, which provide the mixing for the germinating kernels, were used first after 24 hours of germination and second after 48 hours of germination. Once the germination time achieved the expected value for Control Malt # 1, the kernels were kilned.
The kilning step is then described in FIG. 10 as using a single floor kiln with gas heating. The kernels were heated for 16:30 hours using hot air from 55-70° C., then for 5 hours using hot air at 80° C. […] The malt was cleaned by removing the rootlets using a malt deculming screw, and the cleaned malt was packaged into 25 kilogram bags.

two row barley [2] = experiment: Germination rate assay; type: in vivo; settings: Example 2; 4.5 days germination; % printed
Description: The Germination rate assay informs the percentage of germinated kernels during malting. One hundred barley grains are placed inside each one of four Petri plates containing 4mL of distilled water in a paper filter. The number of germinated kernels is measured after 24, 48 and 72 hours respectively. The germination rate is defined comparing the number of germinated kernels at 24, 48 and 72 h with total number of kernels (400). Typical result for Germination rate analysis is minimum 95%.

two row barley [3] = experiment: Huzzar rate assay; type: in vivo; settings: Example 2; 4.5 days germination; % printed
Source text: The Huzzar rate assay informs the ratio of cereal kernels in which the acrospires have emerged from end of grains. A range of devices have been used as measuring aids having magnifying lenses and ruled scales with diverging lines that are arranged over the grain with the base and tip at the “0” and “1” lines and then divide the grain length into ¼, ½, ⅔, ¾, 1 and 1+ or overgrown. The results may be expressed as an average value. Typical result for Huzzar rate analysis is maximum 3%.

Rebaudioside C
impact on stimulation of barley germination (two row barley [1]): positive impact

C=C1C[C@@]23CC[C@H]4[C@@](C)(CCC[C@@]4(C)C(=O)O[C@@H]4O[C@H](CO)[C@@H](O)[C@H](O)[C@H]4O)[C@@H]2CC[C@]1(O[C@@H]1O[C@H](CO)[C@@H](O)[C@H](O)[C@H]1O)C3 [Rubusoside]
impact on stimulation of barley germination (two row barley [1]): do not seem to play a significant role

C=C1C[C@@]23CC[C@H]4[C@@](C)(CCC[C@@]4(C)C(=O)O[C@@H]4O[C@H](CO)[C@@H](O)[C@H](O)[C@H]4O)[C@@H]2CC[C@]1(O[C@@H]1O[C@H](CO)[C@@H](O)[C@H](O)[C@H]1O[C@@H]1O[C@@H](C)[C@H](O)[C@@H](O)[C@H]1O)C3 [Dulcoside A]
impact on stimulation of barley germination (two row barley [1]): negative impact

C=C1C[C@@]23CC[C@H]4[C@@](C)(CCC[C@@]4(C)C(=O)O[C@@H]4O[C@H](CO)[C@@H](O)[C@H](O)[C@H]4O)[C@@H]2CC[C@]1(O[C@@H]1O[C@H](CO)[C@@H](O)[C@H](O)[C@H]1O[C@@H]1O[C@H](CO)[C@@H](O)[C@H](O)[C@H]1O)C3 [Stevioside]
impact on stimulation of barley germination (two row barley [1]): do not seem to play a significant role

C=C1C[C@@]23CC[C@H]4[C@@](C)(CCC[C@@]4(C)C(=O)O[C@@H]4O[C@H](CO)[C@@H](O)[C@H](O)[C@H]4O)[C@@H]2CC[C@]1(O[C@@H]1O[C@H](CO)[C@@H](O)[C@H](O[C@@H]2O[C@H](CO)[C@@H](O)[C@H](O)[C@H]2O)[C@H]1O[C@@H]1O[C@H](CO)[C@@H](O)[C@H](O)[C@H]1O)C3 [Rebaudioside A]
effect on proteolytic enzymes activity and protein breakdown (two row barley [1]): appears to have an effect
impact on stimulation of barley germination (two row barley [1]): positive impact

Rebaudioside B
impact on stimulation of barley germination (two row barley [1]): seems to impact barley germination at certain content ranges

C=C1C[C@@]23CC[C@H]4[C@@](C)(CCC[C@@]4(C)C(=O)O[C@@H]4O[C@H](CO)[C@@H](O)[C@H](O)[C@H]4O[C@@H]4O[C@H](CO)[C@@H](O)[C@H](O)[C@H]4O)[C@@H]2CC[C@]1(O[C@@H]1O[C@H](CO)[C@@H](O)[C@H](O[C@@H]2O[C@H](CO)[C@@H](O)[C@H](O)[C@H]2O)[C@H]1O[C@@H]1O[C@H](CO)[C@@H](O)[C@H](O)[C@H]1O)C3 [Rebaudioside D]
impact on stimulation of barley germination (two row barley [1]): do not seem to play a significant role

Rebaudioside F
impact on stimulation of barley germination (two row barley [1]): seems to impact barley germination at certain content ranges

C=C1C[C@]23C[C@@]1(O)CC[C@H]2[C@@]12C=C[C@H](O)[C@@](C)(C(=O)O1)[C@H]2[C@@H]3C(=O)O [Control 3, Gibberellic acid]
Germination rate (two row barley [2]): 90%
Huzzar rate (two row barley [3]): 5%

C=C1C[C@@]23CC[C@H]4[C@@](C)(CCC[C@@]4(C)C(=O)O)[C@@H]2CC[C@]1(O[C@@H]1O[C@H](CO)[C@@H](O)[C@H](O)[C@H]1O[C@@H]1O[C@H](CO)[C@@H](O)[C@H](O)[C@H]1O)C3 [Steviolbioside]
impact on stimulation of barley germination (two row barley [1]): do not seem to play a significant role

Reference: patent US20200231912A1, “USE OF STEVIOL GLYCOSIDE IN MALTING” (Corn Products Development, Inc., priority 2017, published 2020)
